How the values were obtained:
[1] = target: GABA-A receptor; agonist GABA site; assay: Inhibition of GABAA receptor (unknown origin); assay type: protein-complex assay, Homo sapiens
Cathepsin G = target: T1, Cathepsin G (Homo sapiens, UniProt P08311); assay: Inhibition of cathepsin G (unknown origin)
T1 sequence (P08311 whole entry): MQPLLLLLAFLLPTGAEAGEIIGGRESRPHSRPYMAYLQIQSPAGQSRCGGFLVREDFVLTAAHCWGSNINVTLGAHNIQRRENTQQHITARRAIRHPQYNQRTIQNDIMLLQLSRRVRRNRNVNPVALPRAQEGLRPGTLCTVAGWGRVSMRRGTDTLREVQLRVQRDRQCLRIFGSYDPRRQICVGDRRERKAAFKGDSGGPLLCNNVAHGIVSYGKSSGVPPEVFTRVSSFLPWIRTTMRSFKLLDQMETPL

[2] = target: T2, Amine oxidase [flavin-containing] A (Homo sapiens, UniProt P21397); assay: Inhibition of MAO-A (unknown origin)
T2 sequence (P21397 whole entry): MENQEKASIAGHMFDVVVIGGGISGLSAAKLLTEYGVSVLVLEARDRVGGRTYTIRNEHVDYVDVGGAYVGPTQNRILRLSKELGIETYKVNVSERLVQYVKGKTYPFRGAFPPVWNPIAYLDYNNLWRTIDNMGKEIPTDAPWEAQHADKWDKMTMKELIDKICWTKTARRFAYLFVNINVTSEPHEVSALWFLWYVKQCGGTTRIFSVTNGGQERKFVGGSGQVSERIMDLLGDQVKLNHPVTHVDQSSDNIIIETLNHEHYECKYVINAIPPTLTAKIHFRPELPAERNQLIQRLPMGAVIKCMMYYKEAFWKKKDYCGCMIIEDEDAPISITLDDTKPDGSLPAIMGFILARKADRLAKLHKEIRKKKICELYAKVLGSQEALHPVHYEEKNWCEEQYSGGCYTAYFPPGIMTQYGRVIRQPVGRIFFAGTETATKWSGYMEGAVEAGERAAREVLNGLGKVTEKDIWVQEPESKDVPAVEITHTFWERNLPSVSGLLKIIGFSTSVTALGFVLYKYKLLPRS

[3] = target: T3, Alpha-2A adrenergic receptor (Homo sapiens, UniProt P08913); assay: Inhibition of alpha2A adrenergic receptor (unknown origin)
T3 sequence (P08913 whole entry): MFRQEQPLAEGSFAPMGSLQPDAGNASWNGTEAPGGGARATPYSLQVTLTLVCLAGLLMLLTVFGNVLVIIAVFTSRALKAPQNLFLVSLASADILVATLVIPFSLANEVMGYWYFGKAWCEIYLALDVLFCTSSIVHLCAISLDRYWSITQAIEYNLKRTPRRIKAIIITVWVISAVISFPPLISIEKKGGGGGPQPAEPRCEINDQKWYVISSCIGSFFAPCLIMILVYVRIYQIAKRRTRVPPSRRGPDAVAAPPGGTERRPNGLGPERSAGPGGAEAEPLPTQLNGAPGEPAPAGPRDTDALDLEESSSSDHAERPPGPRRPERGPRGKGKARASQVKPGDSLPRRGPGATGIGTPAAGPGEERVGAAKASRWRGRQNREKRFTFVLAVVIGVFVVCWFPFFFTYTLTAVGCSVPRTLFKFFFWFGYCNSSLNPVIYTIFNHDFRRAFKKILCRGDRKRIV

[4] = target: T4, Polyunsaturated fatty acid 5-lipoxygenase (Homo sapiens, UniProt P09917); assay: Inhibition of 5-LO (unknown origin)
T4 sequence (P09917 whole entry): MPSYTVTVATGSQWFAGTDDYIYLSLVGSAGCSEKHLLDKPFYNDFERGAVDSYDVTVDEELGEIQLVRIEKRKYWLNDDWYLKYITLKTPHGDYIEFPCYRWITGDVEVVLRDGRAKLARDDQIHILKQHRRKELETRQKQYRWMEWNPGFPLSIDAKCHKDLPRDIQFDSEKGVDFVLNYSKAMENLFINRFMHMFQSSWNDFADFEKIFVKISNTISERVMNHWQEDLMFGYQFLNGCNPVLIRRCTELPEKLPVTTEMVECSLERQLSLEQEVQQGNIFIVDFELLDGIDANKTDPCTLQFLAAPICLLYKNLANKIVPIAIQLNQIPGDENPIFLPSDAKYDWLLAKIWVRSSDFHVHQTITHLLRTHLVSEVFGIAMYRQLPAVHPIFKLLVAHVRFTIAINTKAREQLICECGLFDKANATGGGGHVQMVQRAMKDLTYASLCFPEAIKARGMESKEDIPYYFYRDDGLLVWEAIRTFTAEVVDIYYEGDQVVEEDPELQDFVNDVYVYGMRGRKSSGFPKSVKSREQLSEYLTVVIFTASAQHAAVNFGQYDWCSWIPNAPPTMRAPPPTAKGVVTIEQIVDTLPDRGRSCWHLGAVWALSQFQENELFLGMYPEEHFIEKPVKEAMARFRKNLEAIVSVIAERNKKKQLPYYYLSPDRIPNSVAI

[5] = target: T5, Prostaglandin G/H synthase 2 (Homo sapiens, UniProt P35354); assay: Inhibition of COX2 (unknown origin)
T5 sequence (P35354 whole entry): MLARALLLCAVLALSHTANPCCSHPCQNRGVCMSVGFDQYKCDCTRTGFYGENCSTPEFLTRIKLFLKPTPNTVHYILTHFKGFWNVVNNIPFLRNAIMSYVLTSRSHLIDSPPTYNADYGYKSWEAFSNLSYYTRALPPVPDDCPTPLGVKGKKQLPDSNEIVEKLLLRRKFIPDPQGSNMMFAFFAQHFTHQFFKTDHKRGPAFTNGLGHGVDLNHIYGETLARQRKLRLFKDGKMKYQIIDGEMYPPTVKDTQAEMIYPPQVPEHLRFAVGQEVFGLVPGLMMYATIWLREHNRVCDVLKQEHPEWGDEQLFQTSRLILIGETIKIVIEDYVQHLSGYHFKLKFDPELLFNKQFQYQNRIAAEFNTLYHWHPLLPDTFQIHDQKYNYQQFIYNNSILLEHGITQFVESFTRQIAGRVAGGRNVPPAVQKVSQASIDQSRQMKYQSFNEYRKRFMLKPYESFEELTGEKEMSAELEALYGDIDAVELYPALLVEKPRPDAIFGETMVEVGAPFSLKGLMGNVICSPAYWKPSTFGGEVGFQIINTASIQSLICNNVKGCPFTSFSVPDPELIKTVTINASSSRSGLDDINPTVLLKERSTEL

D(1A) dopamine receptor = D(1A) dopamine receptor (Homo sapiens, UniProt P21728); assay: Inhibition of dopamine D1 receptor (unknown origin)
Glucocorticoid receptor = target: T6, Glucocorticoid receptor (Homo sapiens, UniProt P04150); assay: Inhibition of glucocorticoid receptor (unknown origin)
T6 sequence (P04150 whole entry): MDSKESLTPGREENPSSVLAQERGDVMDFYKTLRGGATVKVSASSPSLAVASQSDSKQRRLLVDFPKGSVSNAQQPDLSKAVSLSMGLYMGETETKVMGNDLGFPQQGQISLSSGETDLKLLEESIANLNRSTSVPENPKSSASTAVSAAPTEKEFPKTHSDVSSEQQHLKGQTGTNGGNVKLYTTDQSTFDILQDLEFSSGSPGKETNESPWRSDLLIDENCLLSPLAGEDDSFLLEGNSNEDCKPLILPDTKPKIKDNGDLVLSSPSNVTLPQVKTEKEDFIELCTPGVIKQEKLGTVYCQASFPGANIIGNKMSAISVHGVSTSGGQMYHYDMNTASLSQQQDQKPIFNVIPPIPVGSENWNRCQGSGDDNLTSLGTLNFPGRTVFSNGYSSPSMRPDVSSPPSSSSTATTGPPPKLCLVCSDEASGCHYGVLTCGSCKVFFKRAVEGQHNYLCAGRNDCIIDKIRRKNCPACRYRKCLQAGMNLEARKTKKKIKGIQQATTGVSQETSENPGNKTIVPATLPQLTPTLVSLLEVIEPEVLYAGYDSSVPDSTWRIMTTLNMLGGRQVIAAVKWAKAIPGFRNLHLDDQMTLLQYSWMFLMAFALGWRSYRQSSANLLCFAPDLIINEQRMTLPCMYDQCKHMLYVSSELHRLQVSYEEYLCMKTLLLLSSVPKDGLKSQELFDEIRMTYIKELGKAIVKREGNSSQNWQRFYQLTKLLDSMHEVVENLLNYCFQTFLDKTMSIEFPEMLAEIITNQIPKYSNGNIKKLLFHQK

[6] = Clearance in cynomolgous monkey at 5 mg/kg, po and 2 mg/kg, iv; assay type: ADME, organism-based, Macaca fascicularis; conditions: cynomolgus monkey, in vivo
[7] = Half life in cynomolgous monkey at 5 mg/kg, po and 2 mg/kg, iv; assay type: ADME, organism-based, Macaca fascicularis; conditions: cynomolgus monkey, in vivo
[8] = Bioavailability in cynomolgous monkey at 5 mg/kg, po and 2 mg/kg, iv; assay type: ADME, organism-based, Macaca fascicularis; conditions: cynomolgus monkey, in vivo
[9] = Bioavailability in rat at 5 mg/kg, po and 2 mg/kg, iv; assay type: ADME, organism-based; conditions: in vivo
[10] = Cmax in cynomolgous monkey at 5 mg/kg, po and 2 mg/kg, iv; assay type: ADME, organism-based, Macaca fascicularis; conditions: cynomolgus monkey, in vivo
[11] = Lipophilicity, log D of the compound at pH 7.4; assay type: physicochemical; conditions: buffer
[12] = Cmax in dog at 5 mg/kg, po and 2 mg/kg, iv; assay type: ADME, organism-based, Canis lupus familiaris; conditions: in vivo
[13] = Volume of distribution at steady state in cynomolgous monkey at 5 mg/kg, po and 2 mg/kg, iv; assay type: ADME, organism-based, Macaca fascicularis; conditions: cynomolgus monkey, in vivo, read-out: Vdss
[14] = Half life in dog liver microsomes at 2 uM; assay type: ADME, Canis lupus familiaris
[15] = Clearance in dog at 5 mg/kg, po and 2 mg/kg, iv; assay type: ADME, organism-based, Canis lupus familiaris; conditions: in vivo
[16] = Half life in rat at 5 mg/kg, po and 2 mg/kg, iv; assay type: ADME, organism-based; conditions: in vivo
[17] = Induction of action potential duration in guinea pig papillary muscle cells at 30 uM; assay type: functional, Cavia porcellus
[18] = Half life in dog at 5 mg/kg, po and 2 mg/kg, iv; assay type: ADME, organism-based, Canis lupus familiaris; conditions: in vivo
[19] = AUC in cynomolgous monkey at 5 mg/kg, po and 2 mg/kg, iv; assay type: ADME, organism-based, Macaca fascicularis; conditions: cynomolgus monkey, plasma
Hepatitis C virus [20] = assay: Antiviral activity against Hepatitis C virus genotype 1a infected in human Huh cells assessed as inhibition of viral replication by RT-PCR-based replicon assay; assay type: functional, cell-based, Hepacivirus hominis; conditions: subtype 1a
[21] = Half life in cynomolgous monkey liver microsomes at 2 uM; assay type: ADME, Macaca fascicularis; conditions: cynomolgus monkey
[22] = Ratio of drug uptake in liver to plasma of rat at 5 mg/kg, po and 2 mg/kg, iv after 6 to 8 hrs; assay type: ADME, organism-based
[23] = Permeability from apical to basolateral side of human Caco2 cells; assay type: ADME, cell-based; conditions: Caco-2, read-out: permeability
[24] = target: Voltage-gated inwardly rectifying potassium channel KCNH2 (Homo sapiens, UniProt Q12809); assay: Inhibition of human ERG channel
[25] = Half life in rat liver microsomes at 2 uM; assay type: ADME
[26] = Cmax in rat at 5 mg/kg, po and 2 mg/kg, iv; assay type: ADME, organism-based; conditions: in vivo
[27] = Volume of distribution at steady state in rat at 5 mg/kg, po and 2 mg/kg, iv; assay type: ADME, organism-based; conditions: in vivo, read-out: Vdss
[28] = AUC in dog at 5 mg/kg, po and 2 mg/kg, iv; assay type: ADME, organism-based, Canis lupus familiaris; conditions: plasma
[29] = Clearance in rat at 5 mg/kg, po and 2 mg/kg, iv; assay type: ADME, organism-based; conditions: in vivo
[30] = Volume of distribution at steady state in dog at 5 mg/kg, po and 2 mg/kg, iv; assay type: ADME, organism-based, Canis lupus familiaris; conditions: in vivo, read-out: Vdss
Hepatitis C virus [31] = assay: Antiviral activity against Hepatitis C virus genotype 1b infected in human Huh cells assessed as inhibition of viral replication by RT-PCR-based replicon assay; assay type: functional, cell-based, Hepacivirus hominis
[32] = Half life in human liver microsomes at 2 uM; assay type: ADME
[33] = AUC in rat at 5 mg/kg, po and 2 mg/kg, iv; assay type: ADME, organism-based; conditions: plasma
[34] = Bioavailability in dog at 5 mg/kg, po and 2 mg/kg, iv; assay type: ADME, organism-based, Canis lupus familiaris; conditions: in vivo

Chain of Voltage-gated inwardly rectifying potassium channel KCNH2 (Q12809 whole entry): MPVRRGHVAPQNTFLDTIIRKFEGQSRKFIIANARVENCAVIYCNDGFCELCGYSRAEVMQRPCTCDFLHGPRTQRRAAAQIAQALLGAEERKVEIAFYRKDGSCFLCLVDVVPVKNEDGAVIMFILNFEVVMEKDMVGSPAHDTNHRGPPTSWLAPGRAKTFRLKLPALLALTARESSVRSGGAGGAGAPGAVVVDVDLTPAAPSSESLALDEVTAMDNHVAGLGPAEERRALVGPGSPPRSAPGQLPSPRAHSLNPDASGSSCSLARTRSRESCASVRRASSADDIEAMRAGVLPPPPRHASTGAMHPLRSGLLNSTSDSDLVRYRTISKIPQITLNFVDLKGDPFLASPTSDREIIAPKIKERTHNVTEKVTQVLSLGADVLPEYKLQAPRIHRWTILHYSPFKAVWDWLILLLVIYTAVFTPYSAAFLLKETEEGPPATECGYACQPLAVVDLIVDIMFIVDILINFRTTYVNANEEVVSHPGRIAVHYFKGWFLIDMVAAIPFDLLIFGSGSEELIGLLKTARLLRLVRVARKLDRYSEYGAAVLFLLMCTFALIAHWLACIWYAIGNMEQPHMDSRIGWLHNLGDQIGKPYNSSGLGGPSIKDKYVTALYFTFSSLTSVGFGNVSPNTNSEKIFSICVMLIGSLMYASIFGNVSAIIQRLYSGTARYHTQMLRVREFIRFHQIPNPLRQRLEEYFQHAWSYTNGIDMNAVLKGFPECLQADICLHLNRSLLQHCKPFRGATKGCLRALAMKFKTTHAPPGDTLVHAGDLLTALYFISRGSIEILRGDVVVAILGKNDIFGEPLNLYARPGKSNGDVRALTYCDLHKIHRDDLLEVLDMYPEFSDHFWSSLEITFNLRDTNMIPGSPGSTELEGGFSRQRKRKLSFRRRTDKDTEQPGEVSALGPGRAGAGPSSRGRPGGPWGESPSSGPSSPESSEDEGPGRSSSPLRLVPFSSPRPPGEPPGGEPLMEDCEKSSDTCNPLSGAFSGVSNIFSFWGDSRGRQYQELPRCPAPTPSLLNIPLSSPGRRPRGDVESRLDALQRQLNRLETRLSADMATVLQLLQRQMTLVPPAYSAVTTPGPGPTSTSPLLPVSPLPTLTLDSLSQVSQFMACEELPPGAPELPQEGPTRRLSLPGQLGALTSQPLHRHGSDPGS
Chain of D(1A) dopamine receptor (P21728 whole entry): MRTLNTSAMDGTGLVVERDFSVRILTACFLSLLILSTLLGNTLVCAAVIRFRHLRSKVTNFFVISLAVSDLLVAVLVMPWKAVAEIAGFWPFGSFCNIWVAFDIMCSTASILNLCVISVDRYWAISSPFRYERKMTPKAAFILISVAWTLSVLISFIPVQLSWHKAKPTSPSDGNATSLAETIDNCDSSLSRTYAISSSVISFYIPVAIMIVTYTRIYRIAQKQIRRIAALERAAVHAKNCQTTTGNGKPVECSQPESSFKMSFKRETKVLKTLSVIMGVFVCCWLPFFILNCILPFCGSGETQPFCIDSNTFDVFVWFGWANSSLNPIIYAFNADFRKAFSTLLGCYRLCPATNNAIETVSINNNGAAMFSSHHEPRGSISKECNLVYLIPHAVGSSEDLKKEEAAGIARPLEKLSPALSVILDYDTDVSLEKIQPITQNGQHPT

## Cn1c(-c2ccccn2)c(C2CCCC2)c2ccc(C(=O)NC3(C(=O)Nc4ccc(/C=C/C(=O)O)cc4)CCC3)cc21 [BILB-1941]
[1]
  IC50: < 10 µM
Cathepsin G
  IC50: < 10 µM
[2]
  IC50: < 10 µM
[3]
  IC50: < 10 µM
[4]
  IC50: < 10 µM
[5]
  IC50: < 10 µM
D(1A) dopamine receptor
  IC50: < 10 µM
Glucocorticoid receptor
  IC50: < 10 µM

## CCOc1nc(NC(=O)C2(NC(=O)c3ccc4c(c3)c(C)c(-c3ccc(F)cn3)n4C3CCCCC3)CCC2)ccc1/C=C/C(=O)O
[6]
  clearance: 4.1 mL/min/kg
[7]
  half-life: 2.4 h
[8]
  bioavailability: 45%
[9]
  bioavailability: 36%
[10]
  Cmax: 4.4 µM
[11]
  logD: > 4.9
[12]
  Cmax: 5.9 µM
[13]
  Vd: 0.34 L/kg
[14]
  half-life at 2 µM: 2.2 h
[15]
  clearance: 1.9 mL/min/kg
[16]
  half-life: 1.7 h
[17]
  Activity: 20%
[18]
  half-life: 3 h
[19]
  AUC: 14 µM·h
Hepatitis C virus [20]
  EC50: 0.022 µM
[21]
  half-life at 2 µM: 0.217 h
[22]
  Kp: 4
[23]
  Papp A→B: 15 ×10⁻⁶ cm/s
[24]
  IC50: 1.4 µM
[25]
  half-life at 2 µM: 0.683 h
[26]
  Cmax: 4.5 µM
[27]
  Vd: 0.4 L/kg
[28]
  AUC: 26 µM·h
[29]
  clearance: 4.2 mL/min/kg
[30]
  Vd: 0.34 L/kg
Hepatitis C virus [31]
  EC50: 0.009 µM
[32]
  half-life at 2 µM: 1.72 h
[33]
  AUC: 11 µM·h
[34]
  bioavailability: 42%
